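96-well plates; 48 h exposure; 5 concentrations. Endpoints by linear interpolation between flanking doses. Not reached: highest tested concentration assigned. The concentration for 50% growth inhibition is given as GI50. TGI is the concentration that stops growth completely.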
Legend:
Assay in all cases: NCI-60 cell line screen, 48 h
[1] = system: CAKI-1 renal
[2] = system: BT-549 breast
[3] = system: UACC-257 melanoma
[4] = system: SN12C renal
[5] = system: SF-268 CNS
[6] = system: HCT-116 colon
[7] = system: U251 CNS
[8] = system: LOX IMVI melanoma
[9] = system: HCT-15 colon
[10] = system: SK-MEL-28 melanoma
[11] = system: MALME-3M melanoma
[12] = system: NCI-H522 lung
[13] = system: PC-3 prostate
[14] = system: SK-MEL-2 melanoma
[15] = system: SK-MEL-5 melanoma
[16] = system: KM12 colon
[17] = system: 786-0 renal
[18] = system: OVCAR-4 ovarian
[19] = system: UACC-62 melanoma
[20] = system: NCI/ADR-RES ovarian
[21] = system: IGROV1 ovarian
[22] = system: OVCAR-3 ovarian
[23] = system: NCI-H23 lung
[24] = system: HL-60(TB) leukemia
[25] = system: RXF 393 renal
[26] = system: COLO 205 colon
[27] = system: NCI-H226 lung
[28] = system: OVCAR-5 ovarian
[29] = system: SF-539 CNS
[30] = system: HCC-2998 colon
[31] = system: SK-OV-3 ovarian
[32] = system: DU-145 prostate
[33] = system: RPMI-8226 leukemia
[34] = system: OVCAR-8 ovarian
[35] = system: SR leukemia
[36] = system: CCRF-CEM leukemia
[37] = system: EKVX NSCLC
[38] = system: TK-10 renal
[39] = system: UO-31 renal
[40] = system: MDA-MB-435
[41] = system: SW-620 colon
[42] = system: NCI-H460 lung
[43] = system: ACHN renal
[44] = system: SNB-19 CNS
[45] = system: K-562 leukemia
[46] = system: M14 melanoma
[47] = system: HT29 colon
[48] = system: A498 renal
[49] = system: A549 NSCLC
[50] = system: HOP-62 NSCLC
[51] = system: MDA-MB-231 breast
[52] = system: SF-295 CNS
[53] = system: HOP-92 NSCLC
[54] = system: T-47D breast
[55] = system: MOLT-4 leukemia
[56] = system: MCF7 breast
[57] = system: SNB-75 CNS
[58] = system: HS 578T breast

SMILES: COc1cccc(-c2nn(-c3ccccc3)cc2-c2ccnc(NCCNS(=O)(=O)c3ccc(C(F)(F)F)cc3)c2)c1
- GI50 [1]: 3.64 µM
- TGI [1]: > 100 µM
- GI50 [2]: 1.95 µM
- TGI [2]: 4.56 µM
- GI50 [3]: 3.14 µM
- TGI [3]: 15 µM
- GI50 [4]: 2.27 µM
- TGI [4]: 5.39 µM
- GI50 [5]: 3.54 µM
- TGI [5]: > 100 µM
- GI50 [6]: 3.27 µM
- TGI [6]: 15.8 µM
- GI50 [7]: 3.54 µM
- TGI [7]: 13.9 µM
- GI50 [8]: 1.84 µM
- TGI [8]: 3.78 µM
- GI50 [9]: 3.04 µM
- TGI [9]: > 100 µM
- GI50 [10]: 5.66 µM
- TGI [10]: > 100 µM
- GI50 [11]: 2.33 µM
- TGI [11]: 6.81 µM
- GI50 [12]: 2.33 µM
- TGI [12]: 12.5 µM
- GI50 [13]: 2.86 µM
- TGI [13]: 26.7 µM
- GI50 [14]: 2.42 µM
- TGI [14]: 6.47 µM
- GI50 [15]: 1.72 µM
- TGI [15]: 3.11 µM
- GI50 [16]: 3.02 µM
- TGI [16]: 16.7 µM
- GI50 [17]: 2.63 µM
- TGI [17]: 21.4 µM
- GI50 [18]: 2.94 µM
- TGI [18]: > 100 µM
- GI50 [19]: 3.22 µM
- TGI [19]: 35 µM
- GI50 [20]: 2.79 µM
- TGI [20]: 14.4 µM
- GI50 [21]: 4.19 µM
- TGI [21]: > 100 µM
- GI50 [22]: 2.59 µM
- TGI [22]: 7.3 µM
- GI50 [23]: 3.23 µM
- TGI [23]: > 100 µM
- GI50 [24]: 1.97 µM
- TGI [24]: 5.63 µM
- GI50 [25]: 2.1 µM
- TGI [25]: 5.5 µM
- GI50 [26]: 1.87 µM
- TGI [26]: 3.57 µM
- GI50 [27]: 5.77 µM
- TGI [27]: > 100 µM
- GI50 [28]: 4.98 µM
- TGI [28]: > 100 µM
- GI50 [29]: 2.48 µM
- TGI [29]: 6.28 µM
- GI50 [30]: 3.36 µM
- TGI [30]: 24.8 µM
- GI50 [31]: 3 µM
- TGI [31]: 11.1 µM
- GI50 [32]: 5.09 µM
- TGI [32]: > 100 µM
- GI50 [33]: 2.42 µM
- TGI [33]: 7.86 µM
- GI50 [34]: 4.07 µM
- TGI [34]: 46.2 µM
- GI50 [35]: 1.77 µM
- TGI [35]: 4.6 µM
- GI50 [36]: 2.34 µM
- TGI [36]: > 100 µM
- GI50 [37]: 3.16 µM
- TGI [37]: > 100 µM
- GI50 [38]: 2.39 µM
- TGI [38]: 9.88 µM
- GI50 [39]: 2.61 µM
- TGI [39]: > 100 µM
- GI50 [40]: 3.23 µM
- TGI [40]: 17.5 µM
- GI50 [41]: 4.16 µM
- TGI [41]: > 100 µM
- GI50 [42]: 3.47 µM
- TGI [42]: > 100 µM
- GI50 [43]: 3.4 µM
- TGI [43]: > 100 µM
- GI50 [44]: 4.62 µM
- TGI [44]: > 100 µM
- GI50 [45]: 2.87 µM
- TGI [45]: 19.4 µM
- GI50 [46]: 3.8 µM
- TGI [46]: > 100 µM
- GI50 [47]: 2.32 µM
- TGI [47]: 5.75 µM
- GI50 [48]: 1.66 µM
- TGI [48]: 6.5 µM
- GI50 [49]: 3.71 µM
- TGI [49]: 32 µM
- GI50 [50]: 4.16 µM
- TGI [50]: 43.6 µM
- GI50 [51]: 3.15 µM
- TGI [51]: > 100 µM
- GI50 [52]: 2.91 µM
- TGI [52]: 8.67 µM
- GI50 [53]: 2.12 µM
- TGI [53]: 6.83 µM
- GI50 [54]: 2.36 µM
- TGI [54]: 7.55 µM
- GI50 [55]: 1.93 µM
- TGI [55]: 5.48 µM
- GI50 [56]: 3.15 µM
- TGI [56]: 39.1 µM
- GI50 [57]: 3.18 µM
- TGI [57]: 37.1 µM
- GI50 [58]: 4.07 µM
- TGI [58]: > 100 µM

Source: PubChem BioAssay (NCI)
